Legend:
[1] = system: c-jun; experiment: c-Jun phosphorylation in 32P-labelled Jurkat cells (SDS-PAGE, tryptic phosphopeptide mapping); format: cell-based, human
Experimental: Jurkat cells were grown in RPMI with 10% fetal calf serum (FCS), 1 mM […], 100 μ/ml penicillin (pen), 100 μg/ml streptomycin (strep) and 250 ng/ml amphotericin (complete medium). HeLa S3, CV-1 and FR3T3 cells were grown in DMEM supplemented with 10% FCS, 100 μ/ml pen, 100 μg/ml strep. All cells were cultured at 37° C. with 5% CO2. Mouse thymocytes were prepared from 8 week old Balb/C mice by gradient centrifugation on lymphocyte separation medium (Pharmacia). The lymphocytes were cultured for 5 hours at 37° C. in RPMI+10% FCS, prior to stimulation. Jurkat cells were labelled for 90 minutes with 0.5 mCi/ml ^32P-orthophosphate (ICN Radiochemicals) in medium lacking sodium phosphate. Labelled cells were treated with TPA (Sigma) and A23187 (Calbiochem) 1 μg/ml as indicated. When used, cyclosporin A (CsA) (Sandoz) 100 ng/ml in ethanol was added 10 minutes prior to cell stimulation. Following stimulation, the labelled cells were washed twice with ice-cold PBS then lysed with RIPA buffer (10 mM Tris pH 7.5, 150 mM NaCl, 2 mM EDTA, 1% Triton-X 100, 1% DOC, 0.1% SDS) supplemented with phosphatase inhibitors (20 mM β-glycerophosphate, 10 mM p-nitro-phenylphosphate, 1 mM Na3 VO4), and protease inhibitors (10 μg/ml leupeptin, aprotonin, pepstatin and 1 mM phenylmethyl sulfonylfluoride). c-Jun was immunoprecipitated as described (Binetruy, et al., supra., 1992) and analyzed by SDS-PAGE, followed by peptide mapping (Boyle, et al., Cell, 64:573-584, 1991; Lin, et al. Cell, 70:777-789, 1992). Ha-Ras was immunoprecipitated with Y13-259. Ha-Ras bound nucleotides were extracted and analyzed as described by Satoh, et al., (Proc. Natl. Acad. Sci., USA, 15:5993-5997, 1990).
Induction of c-Jun transcription and optimal stimulation of AP-1 correlate with changes in c-jun phosphorylation (Devary, et al., Cell, 71:1081-1091, 1992). The effect of TPA and A23187 on c-Jun phosphorylation in Jurkat cells was examined. To elevate c-Jun expression, Jurkat cells were transfected with a c-Jun expression vector. The cells were labelled with ^32P and c-Jun was immunoprecipitated from cells subjected to various stimuli and analyzed by SDS-PAGE (FIG. 12A). Jurkat cells (10^6 cells per lane) were transfected with 0.5 μg of a SRα-cJun expression vector and 24 hours later were labeled for 3 hours with ^32P-orthophosphate (1 mCi/ml). After 15 minutes, treatment with 50 ng/ml TPA (T), 1 μg/ml A23187 (A) and 100 ng/ml CsA, either alone or in combination, as indicated, the cells were lysed in RIPA buffer and c-Jun was isolated by immunoprecipitation and analyzed by SDS-PAGE. The c-Jun bands are indicated.
c-Jun phosphorylation was further analyzed by two-dimensional phosphopeptide mapping (FIG. 12C). This analysis included all the isoforms of c-Jun. All of the c-Jun specific protein bands shown in FIG. 12A, isolated from equal numbers of cells, were excised from the gel and subjected to tryptic phosphopeptide mapping. Shown is a typical result (this experiment was repeated at least three times). N-nonstimulated cells; T-cells treated with 50 ng/ml TPA; T/A: cells treated with 50 ng/ml TPA and 1 μg/ml A23187; T/A+CsA: cells treated with T/A and 100 ng/ml CsA. a,b,c,x and y correspond to the various tryptic phosphopeptides of c-Jun, previously described by Boyle, et al., (Cell, 64:573-584, 1991) and Smeal, et al., (Nature, 354:494-496, 1991). T1 and T2 correspond to the minor phosphorylation sites; Thr91, 93 and 95 (Hibi, et al., Genes & Dev., 7:000, 1993).

[2] = system: Ha-Ras; experiment: GTP content of Ha-Ras in 32P-labelled Jurkat cells; format: cell-based, human; conditions: for Ha-Ras activation measured by increase in GTP content, agent alone: 10 ng/ml TPA, 1 μg/ml anti-CD3 or 2 μg/ml anti-CD28, 2 minutes
Experimental: Jurkat cells 10×10^6 were labelled for 3 hours with ^32P-orthophosphate (ICN Radiochemicals) at 1 mCi/ml in 5 mM of Na3VO4 phosphate-free DMEM supplemented with 1 mg/ml BSA. Before harvest, cells were stimulated with TPA, 10 ng/ml, A23187, 1 μg/ml anti-CD3 antibody (OKT3), 10 μg/ml, anti-CD28 antibody, 2 μg/ml or their combinations. After treatment for a specified period, cells were washed once immediately with ice cold PBS, twice with ice-cold Tris-Buffered saline (50 mM Tris-HCl, pH 7.5, 20 mM MgCl2, 150 mM NaCl, […] Nonidet P-40/1 μg/ml of aprotinin, leupeptin, pepstatin and 1 mM phenylmethyl sulfonylfluoride). Ras p21 was immunoprecipitated with monoclonal antibody […] (Santa Cruz Biotechnology, Inc., Santa Cruz, Calif.). The GDP/GTP content of Ras was analyzed by TLC as described (Satoh, et al., Proc. Natl. Acad. Sci., USA, 15:5993, 1990) and quantitated with an Ambis radioanalytic image system (Ambis, San Diego, Calif.).
Jurkat cells (2×10^6 cells per point) labeled with 0.4 mCi of ^32P-orthophosphate for 3 hours were incubated with nonspecific antibody (1 μg/ml mouse IgG; control), 1 μg/ml anti-CD3, 2 μg/ml anti-CD28, 10 ng/ml TPA or 500 ng/ml A23187 (A), as indicated. After 2 minutes, the cells were harvested, lysed and Ha-Ras was isolated by immunoprecipitation. The guanine nucleotide bound to Ha-Ras were extracted, separated by thin layer chromatography and quantitiated as described in EXAMPLE 9. The values shown represent the averages of two separate experiments done in duplicates. Jurkat cells were labeled with ^32P-orthophosphate and stimulated with either TPA or anti-CD3 as described above. At the indicated time points, the cells were harvested and the GTP content of Ha-Ras was determined as described directly above.

**Q.** `CNc1ccc2oc(C[C@H]3O[C@@]4(CC[C@H]3C)O[C@H]([C@H](C)C(=O)c3ccc[nH]3)[C@H](C)C[C@H]4C)nc2c1C(=O)O` [A23187] was tested. Which “N-terminal c-Jun phosphorylation, costimulation with TPA” value ([1]; A23187 1 μg/ml plus TPA 50 ng/ml) did it give?
**A.** strongly enhanced

**Q.** What about the “phosphorylated c-Jun migration, costimulation with TPA” value ([1]; A23187 1 μg/ml plus TPA, 15 minutes) of the same molecule?
**A.** enhanced this effect

**Q.** What about the “Ha-Ras activation by anti-CD3 or TPA, costimulation with anti-CD28 or A23187, respectively” value [2] of the same molecule?
**A.** not augmented

**Q.** With `CCCCCCCCCCCCCC(=O)O[C@@H]1[C@@H](C)[C@@]2(O)[C@@H](C=C(CO)C[C@]3(O)C(=O)C(C)=C[C@@H]23)[C@H]2C(C)(C)[C@]12OC(C)=O` [TPA] as the molecule, how does the “phosphorylated c-Jun migration on SDS-PAGE, agent alone” value ([1]; Jurkat transfected with c-Jun vector, TPA 50 ng/ml, 15 minutes) read?
**A.** induced the appearance of slower migrating bands

**Q.** What about the “phosphorylation of N-terminal sites Ser63 and Ser73 of c-Jun (phosphopeptide map), agent alone” value ([1]; Jurkat, TPA 50 ng/ml) of the same molecule?
**A.** increased phosphorylation of the N-terminal sites

**Q.** And the “Ha-Ras activation measured by increase in GTP content, agent alone” value [2]?
**A.** activation of Ha-Ras

**Q.** What about the “persistence of Ha-Ras activation” value ([2]; TPA) of the same molecule?
**A.** at least 20 minutes

**Q.** Which “Ha-Ras activation measured by increase in GTP content, agent alone” value [2] does the source give for “anti-CD3: anti-CD3 monoclonal antibody OKT3” here?
**A.** activation of Ha-Ras

**Q.** What about the “time course of Ha-Ras response” value ([2]; soluble anti-CD3) of the same molecule?
**A.** highly transient

**Q.** Which results are given for cyclosporin A [CsA]?
**A.** N-terminal c-Jun phosphorylation, CsA added to TPA+A23187 ([1]; CsA 100 ng/ml): prevented the enhancement of N-terminal phosphorylation; phosphorylated c-Jun migration, CsA added to TPA+A23187 ([1]; CsA 100 ng/ml, 15 minutes): reduced the Ca^++ effect
